Common to all, as to experiment: luciferase reporter transactivation (zebrafish Aro-B promoter) in transfected U251-MG cells
Assay type in all cases: cell-based
What all share (conditions): agonist; 48 hr, 37°C, 2% charcoal/dextran FCS

Assay [1] deals with T1, zfER-α (zebrafish ER-α) (Danio rerio, UniProt P57717).
T1 construct: gene esr1; coding region of receptor cDNA in Topo-pcDNA3 (Menuet et al. 2002), transiently expressed in human U251-MG glial cells; approx. 65 kDa in vitro translated
T1 sequence (P57717 1-569): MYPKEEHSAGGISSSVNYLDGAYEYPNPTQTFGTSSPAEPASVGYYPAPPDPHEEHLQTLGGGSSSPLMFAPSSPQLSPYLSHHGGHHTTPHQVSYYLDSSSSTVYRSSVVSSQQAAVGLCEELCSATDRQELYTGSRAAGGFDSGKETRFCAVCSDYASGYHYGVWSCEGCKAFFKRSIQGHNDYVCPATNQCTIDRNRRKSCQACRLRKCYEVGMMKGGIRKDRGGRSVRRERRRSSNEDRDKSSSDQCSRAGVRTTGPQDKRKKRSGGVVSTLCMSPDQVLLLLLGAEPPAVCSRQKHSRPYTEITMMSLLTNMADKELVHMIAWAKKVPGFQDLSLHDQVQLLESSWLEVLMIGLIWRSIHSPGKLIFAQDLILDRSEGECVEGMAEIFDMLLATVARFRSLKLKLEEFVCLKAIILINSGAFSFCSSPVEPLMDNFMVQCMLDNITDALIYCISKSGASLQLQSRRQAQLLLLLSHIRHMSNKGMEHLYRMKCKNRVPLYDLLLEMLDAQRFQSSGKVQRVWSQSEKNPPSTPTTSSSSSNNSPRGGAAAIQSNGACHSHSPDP
The source says:
luciferase reporter transactivation (zebrafish Aro-B promoter) in transfected U251-MG cells on zfER-α (zebrafish ER-α)

Assay [2] concerns the target T2, zfER-β2 (zebrafish ER-β2) (Danio rerio, UniProt Q7ZU32).
T2 construct: gene esr2a; coding region of receptor cDNA in Topo-pcDNA3 (Menuet et al. 2002), transiently expressed in human U251-MG glial cells; approx. 65 kDa; ER-β2 of Menuet et al. corresponds to esr2a (esr2b is ER-β1)
The source says: luciferase reporter transactivation (zebrafish Aro-B promoter) in transfected U251-MG cells on zfER-β2 (zebrafish ER-β2)

Assay [3] deals with T3, zfER-β1 (zebrafish ER-β1) (Danio rerio, UniProt Q5PR29).
T3 construct: gene esr2b; coding region of receptor cDNA in Topo-pcDNA3 (Menuet et al. 2002), transiently expressed in human U251-MG glial cells; approx. 65 kDa; ER-β1 of Menuet et al. corresponds to esr2b (esr2a is ER-β2)
T3 sequence (Q5PR29 1-592): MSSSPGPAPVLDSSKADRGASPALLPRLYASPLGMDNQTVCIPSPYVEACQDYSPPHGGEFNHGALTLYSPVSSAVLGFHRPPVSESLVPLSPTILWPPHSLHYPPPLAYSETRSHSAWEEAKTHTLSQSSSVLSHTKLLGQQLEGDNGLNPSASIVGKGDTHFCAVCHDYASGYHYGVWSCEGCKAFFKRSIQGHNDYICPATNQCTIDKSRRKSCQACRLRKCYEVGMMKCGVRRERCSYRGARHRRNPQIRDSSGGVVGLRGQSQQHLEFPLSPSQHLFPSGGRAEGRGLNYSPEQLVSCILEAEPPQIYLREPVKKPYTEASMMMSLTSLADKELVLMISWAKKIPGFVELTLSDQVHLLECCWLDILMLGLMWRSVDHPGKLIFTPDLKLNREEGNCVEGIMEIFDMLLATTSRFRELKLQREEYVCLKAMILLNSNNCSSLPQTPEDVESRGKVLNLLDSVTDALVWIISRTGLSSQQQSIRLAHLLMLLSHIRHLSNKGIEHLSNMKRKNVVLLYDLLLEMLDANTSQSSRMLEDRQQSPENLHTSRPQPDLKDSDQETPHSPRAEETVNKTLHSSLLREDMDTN
The source says: luciferase reporter transactivation (zebrafish Aro-B promoter) in transfected U251-MG cells on zfER-β1 (zebrafish ER-β1)

The values that follow come from publication PMC1459931, “Assessment of Xenoestrogens Using Three Distinct Estrogen Receptors and the Zebrafish Brain Aromatase Gene in a Highly Responsive Glial Cell System” (Environmental Health Perspectives, 2005).

T2 sequence (Q7ZU32 1-553): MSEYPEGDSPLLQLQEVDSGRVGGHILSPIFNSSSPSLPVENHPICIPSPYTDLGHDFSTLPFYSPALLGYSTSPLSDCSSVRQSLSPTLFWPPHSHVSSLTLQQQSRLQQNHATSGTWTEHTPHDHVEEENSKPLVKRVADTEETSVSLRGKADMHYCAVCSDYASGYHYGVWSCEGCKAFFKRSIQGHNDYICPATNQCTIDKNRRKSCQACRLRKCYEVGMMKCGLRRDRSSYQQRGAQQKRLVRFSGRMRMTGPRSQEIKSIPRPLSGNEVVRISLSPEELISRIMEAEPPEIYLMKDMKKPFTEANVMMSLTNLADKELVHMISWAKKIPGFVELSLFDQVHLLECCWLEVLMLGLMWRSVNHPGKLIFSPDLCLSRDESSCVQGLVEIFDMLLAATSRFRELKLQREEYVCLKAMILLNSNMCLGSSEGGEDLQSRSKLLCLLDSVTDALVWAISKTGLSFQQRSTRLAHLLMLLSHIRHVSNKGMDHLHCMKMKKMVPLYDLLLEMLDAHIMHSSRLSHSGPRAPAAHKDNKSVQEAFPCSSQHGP

Turning to `C[C@H]1CCC[C@H](O)CCC/C=C/c2cc(O)cc(O)c2C(=O)O1` [α-Zeralenol], the concentration for a half-maximal effect (EC50) amounted to 0.59 nM in assay [1], 0.15 nM in assay [2] and 0.11 nM in assay [3].

Broadly, the EC50 is the concentration giving half of the maximal effect. Higher therefore signals weaker potency.
